The text below walks through data of publication PMC12293048, “New Benzimidazole 3′-Deoxynucleosides: Synthesis and Antiherpes Virus Properties” (Biomolecules, 2025).

The structures appear in SMILES notation. Several values for one entry are separate records, joined by “and”; a condition that tells them apart may be missing. Equal values may be shown once. Read-outs that look alike come from different tables or passages of the source.

The test system of series [1] is HSV-1/L2/R^ACV. In words: microbe, parasite or virus in culture. The series is classed as cell-based, herpes simplex virus 1. The following applies: for IC95: Human alphaherpesvirus 1, Vero C1008, read-out: IC95 HSV-1/L2/R^ACV, CPE inhibited almost completely, Vero E6, MOI 0.01, acyclovir-resistant strain. Here is the method: (§1) Vero 6 cells for determining cytotoxicity and antiviral activity were cultured according to the method described in [29].
In 96-well plastic plates with the generated cell monolayer, serial dilutions of the compounds were prepared at […] 1:2 with the maintenance medium (Eagle′s medium and medium 199, mixed in a ratio 1:1). Vero E6 cells were then infected with the infection material at an MOI of 0.01 PFU/cell; incubation was performed at 37 °C in an atmosphere of 5% CO2. Cytotoxicity was determined quantitatively by the trypan blue exclusion method and expressed as CD50: the concentration of the drug at which 50% of cells die after 72 h. […] The duration of incubation was 48 h and 72 h for MOI […], respectively. […] An antiviral activity was assessed by determining ID50 and ID95 (concentrations of compounds that inhibit the development of virus-induced CPE as compared with the control by 50% and almost completely). […] The results of three independent experiments are shown in Table S1 (Supplementary Materials).

Series [2] has as its system Vero E6 cells. In words: Cytotoxicity, trypan blue exclusion. The series is classed as cell-based. The following applies: for CD50: 50% cytotoxic concentration, Vero E6 cells, 72 h; for MTC (maximal tolerable concentration): highest concentration that does not cause death of Vero E6 cells.
The test system of series [3] is HSV-1/L2. In words: CPE inhibition assay, HSV-1 reference strain L2 in Vero E6 cells. The series is classed as cell-based, herpes simplex virus 1. The following applies: for IC95: Human alphaherpesvirus 1, Vero C1008, CPE inhibited almost completely. The protocol:
as §1
Vero E6 cells were then infected with the infection material at an MOI of 0.01 PFU/cell; incubation was performed at 37 °C in an atmosphere of 5% CO2. […] The duration of incubation was 48 h and 72 h for MOI 0.01 PFU/mL, respectively. […] The results of three independent experiments are shown in Table S1 (Supplementary Materials).

For series [4], the system named is HCMV. The following applies: cited from earlier work.
Series [5] has as its system HSV-1. To be noted: cited from earlier work.
The mark [6] stands for this setting: Human alphaherpesvirus 1, Vero C1008, read-out: IC50 HSV-1/L2/R^ACV, CPE inhibition by 50%, Vero E6, MOI 0.01, acyclovir-resistant TK-negative strain.
The mark [7] stands for this setting: Human alphaherpesvirus 1, Vero C1008, read-out: IC50 HSV-1/L2, CPE inhibition by 50%, Vero E6, MOI 0.01.
Setting [8] is: read-out: IC50 HSV-1/L2, CPE inhibition by 50%, Vero E6, MOI 0.01.

`c1ccc2[nH]cnc2c1` [Compound 1, Benzimidazole]: the IC50 in series [1] (setting [6]), in series [3] (setting [7]) and in series [3] (setting [8]) was 1060 µM throughout. The molecule further showed a CD50 in series [2] of 6313.85 ± 167.47 µM. The “MTC (maximal tolerable concentration)” value in series [2] is given as 4235.49 µM. In series [3] (Vero E6, MOI 0.01), this molecule returned an IC95 of 4240 µM.
For `Fc1cc2nc[nH]c2cc1F` [Compound 2, 5,6-Difluorobenzimidazole], the IC50 in series [1] (setting [6]) is 406 µM; in series [3] (setting [7]), 203 µM; in series [3] (setting [8]), 203 µM. This molecule also showed a CD50 in series [2] of 2433.81 ± 37.72 µM. Further, the “MTC (maximal tolerable concentration)” value in series [2] is on record as 1623.06 µM. This molecule gave an IC95 in series [3] (Vero E6, MOI 0.01) of 1620 µM.
For the molecule `Fc1cc(F)c2[nH]cnc2c1` [Compound 3, 4,6-Difluorobenzimidazole], the IC50 in series [1] (setting [6]), in series [3] (setting [7]) and in series [3] (setting [8]) was 812 µM throughout. Also, in series [2], the CD50 stood at 2489.32 ± 92.46 µM. Further, the “MTC (maximal tolerable concentration)” value in series [2] amounted to 811.53 µM. Also, in series [3] (Vero E6, MOI 0.01), the IC95 is 1620 µM.
For the molecule `Fc1cc2nc[nH]c2c(F)c1F` [Compound 4, 4,5,6-Trifluorobenzimidazole], the IC50 in series [1] (setting [6]), in series [3] (setting [7]) and in series [3] (setting [8]) was 363 µM each time. The molecule also had a CD50 in series [2] of 2179.98 ± 27.03 µM. In series [2], the “MTC (maximal tolerable concentration)” value came out at 1453.32 µM. For the same molecule, the IC95 in series [3] (Vero E6, MOI 0.01) amounted to 1450 µM.
Take `COc1c(F)cc2nc[nH]c2c1F` [Compound 5, 4,6-Difluoro-5-methoxybenzimidazole]: the values for the IC50 in series [1] (setting [6]) and in series [3] (setting [7]) were 1360 µM and 1020 µM, respectively. This molecule also returned a CD50 in series [2] of 2909.48 ± 123.18 µM. Besides, the “MTC (maximal tolerable concentration)” value in series [2] turned out to be 1358.40 µM. Also, the IC95 in series [3] (Vero E6, MOI 0.01) came to 2720 µM.
As for `Nc1nc2ccccc2[nH]1` [Compound 6, 2-aminobenzimidazole], the IC50 in series [1] (setting [6]) stood at 705 µM; in series [3] (setting [7]), 470 µM; in series [3] (setting [8]), 470 µM. The same molecule displayed a CD50 in series [2] of 1422.89 ± 18.04 µM. Further, the “MTC (maximal tolerable concentration)” value in series [2] stood at 939.43 µM. The IC95 in series [3] (Vero E6, MOI 0.01) stood at 939 µM.
Turning to `COc1cc2nc(N)[nH]c2cc1F` [Compound 7, 2-amino-5-fluoro-6-methoxybenzimidazole], the IC50 in series [1] (setting [6]), in series [3] (setting [7]) and in series [3] (setting [8]) was 173 µM in each case. Further, the CD50 in series [2] stood at 2165.79 ± 33.74 µM. In series [2], the “MTC (maximal tolerable concentration)” value stood at 1380.68 µM. The molecule further yielded an IC95 in series [3] (Vero E6, MOI 0.01) of 690 µM.
In the case of `Nc1nc2cc(F)c(F)cc2[nH]1` [Compound 8, 2-Amino-5,6-difluorobenzimidazole], the IC50 in series [1] (setting [6]), in series [3] (setting [7]) and in series [3] (setting [8]) was 370 µM in each case. This molecule also displayed a CD50 in series [2] of 1659.39 ± 60.16 µM. For the same molecule, the “MTC (maximal tolerable concentration)” value in series [2] is listed as 739.43 µM. The molecule further had an IC95 in series [3] (Vero E6, MOI 0.01) of 739 µM.
Consider `OC[C@@H]1C[C@@H](O)[C@H](n2cnc3ccccc32)O1` [Compound 9, 1-(β-D-3′-Deoxyribofuranosyl)benzimidazole], for which the IC50 in series [1] (setting [6]) worked out at 1250 µM; in series [3] (setting [7]), 626 µM; in series [3] (setting [8]), 626 µM. Besides, the IC95 in series [1] amounted to 5020 µM; in series [3] (Vero E6, MOI 0.01), 2510 µM. Moreover, in series [2], the CD50 is more than 5019.25 µM. Besides, the “MTC (maximal tolerable concentration)” value in series [2] is 2505.13 µM.
As for `OC[C@@H]1C[C@@H](O)[C@H](n2cnc3cc(F)c(F)cc32)O1` [Compound 10, 5,6-Difluoro-1-(β-D-3′-deoxyribofuranosyl)benzimidazole], the IC50 in series [1] (setting [6]) came to 1480 µM; in series [3] (setting [7]), 246 µM; in series [3] (setting [8]) it was 246 µM. Besides, the IC95 in series [1] is not below 1970 µM; in series [3] (Vero E6, MOI 0.01), 985 µM. Moreover, in series [2], the CD50 worked out at 2901.81 ± 60.28 µM. Moreover, the “MTC (maximal tolerable concentration)” value in series [2] came out at 1970.86 µM.
Turning to `OC[C@@H]1C[C@@H](O)[C@H](n2cnc3c(F)cc(F)cc32)O1` [Compound 11a, 4,6-difluoro-1-(β-D-3′-deoxyribofuranosyl)benzimidazole], the IC50 was less than 2010 µM in series [1] (setting [6]), 251 µM in series [3] (setting [7]) and 251 µM in series [3] (setting [8]). Moreover, the IC95 came to 2010 µM in series [1] and 1000 µM in series [3] (Vero E6, MOI 0.01). This molecule gave a CD50 in series [2] of more than 2007.37 µM. Further, in series [2], the “MTC (maximal tolerable concentration)” value came to 1003.68 µM.
For the molecule `OC[C@@H]1C[C@@H](O)[C@H](n2cnc3c(F)c(F)c(F)cc32)O1` [Compound 12a, 4,5,6-trifluoro-1-(β-D-3′-deoxyribofuranosyl)benzimidazole], the figures for the IC50 in series [1] (setting [6]), in series [3] (setting [7]) and in series [3] (setting [8]) were 494 µM, 250 µM and 250 µM, respectively. Also, the IC95 in series [1] was 2000 µM; in series [3] (Vero E6, MOI 0.01) it was 1000 µM. The same molecule displayed a CD50 in series [2] not below 3999.31 µM. Further, in series [2], the “MTC (maximal tolerable concentration)” value amounted to 1999.65 µM.
`COc1c(F)cc2c(ncn2[C@@H]2O[C@H](CO)C[C@H]2O)c1F` [Compound 13, 4,6-Difluoro-5-metoxy-1-(β-D-3′-deoxyribofuranosyl)benzimidazole]: the IC50 in series [1] (setting [6]) and in series [3] (setting [7]) was 3000 µM in each case. Also, the “MTC (maximal tolerable concentration)” value in series [2] is recorded as 1665.22 µM. Moreover, in series [3] (Vero E6, MOI 0.01), the IC95 is 3330 µM.
For the molecule `Nc1nc2cc(F)c(F)cc2n1[C@@H]1O[C@H](CO)C[C@H]1O` [Compound 16, 2-Amino-5,6-difluoro-1-(β-D-3′-deoxyribofuranosyl)benzimidazole], the IC50 in series [1] (setting [6]), in series [3] (setting [7]) and in series [3] (setting [8]) was 996 µM each time. Also, the IC95 in series [1] was more than 1990 µM; in series [3] (Vero E6, MOI 0.01), more than 1990 µM. For the same molecule, the CD50 in series [2] came to 3315.58 ± 141.99 µM. Moreover, the “MTC (maximal tolerable concentration)” value in series [2] was 1991.35 µM.
On to `OC[C@H]1O[C@@H](n2cnc3cc(Cl)c(Cl)cc32)[C@H](O)[C@@H]1O` [DRB, 5,6-dichloro-1-(β-D-ribofuranosyl)benzimidazole], for which the IC50 in series [4] was 42 µM; in series [5], 30 µM.
For `Nc1nc2c(ncn2COCCO)c(=O)[nH]1` [acyclovir, reference compound], the IC50 in series [1] (Human alphaherpesvirus 1, Vero C1008, virus variant profoundly resistant to acyclovir) was > 100 µg/mL and > 444 µM.
For the molecule `NC(=O)c1ncn([C@@H]2O[C@H](CO)[C@@H](O)[C@H]2O)n1` [ribavirin, reference compound], the IC50 in series [1] (setting [6]) is 512 µM. In addition, the “MTC (maximal tolerable concentration)” value in series [2] turned out to be 4095.00 µM. This molecule also had an IC95 in series [3] (Vero E6, MOI 0.01) of 2050 µM.
